Measured values reported in EP0968998A1, “Cosmetic compositions, ceramide analogues with anti-elastase activity and process for their preparation” (ELF ATOCHEM S.A., priority 1998, dated 2000).

Tests used:
[1] = test system: stratum corneum; assay: Skin hydration: capacitance measurement (Corneometer Courage+Khazaka CM 200), hydration index, cream applied to forearm; type: in vivo, volontaires sains ayant une peau sèche; conditions: for Indice d'Hydratation (IH) M±s: cream with 0,5 % (ex. 7, témoins), 1 % (ex. 4, 8), 5 % (ex. 6)
Text: (§1) Les exemples qui suivent permettent d'illustrer l'invention. […] Les valeurs sont exprimées en nombre d'onde par centimètre. - Résonance magnétique nucléaire (RMN) Les spectres sont réalisés au moyen d'un appareil BRUCKER DRX 500, à 500 MHz (^1H) et 125 MHz (^13C) dans le DMSO-d6. La calibration de l'appareil est effectuée au moyen de DMSO. Les déplacements chimiques sont exprimés en ppm. […] On utilise le N-succinyl-(Ala)3-p-nitroanilide en solution dans le tétrahydrofurane et une solution d'élastase à 100 mg/ml dans un mélange de glycérol et de tampon acétate de sodium (50/50; v/v), pH5. L'activité de l'enzyme est mesurée à 37°C dans 100 mM de tampon Tris-HCI, pH8 contenant 0,01 % de Triton X-100 (volume/volume) et 0,02 % d'azide de sodium (poids/volume). Le céramide à tester, solubilisé dans le tétrahydrofurane (concentration en THF = 0,5 % en volume) est préincubé en présence de l'enzyme (0,05 mg/ml) dans le tampon pendant 5 minutes à 37°C. On ajoute le N-succinyl-(Ala)3-p-nitroanilide (concentration finale : 250 µM) et on mesure la libération de la p-nitroaniline dans une cuve en quartz par spectrophotométrie à 410 nm. La capacité inhibitrice du céramide est exprimée en pourcentage d'inhibition (% I) selon la relation : %I = (1 -(Vi)/(Vo))×100 [formula] dans laquelle Vi et Vo sont les vitesses d'apparition de la p-nitroaniline en présence et en absence d'inhibiteur respectivement. - Mesure de l'amélioration de la barrière cutanée a) mesure de la Perte Insensible en Eau (PIE) La mesure de la PIE permet de quantifier la très faible quantité d'eau qui diffuse passivement à travers le stratum corneum. Ce paramètre représente un très bon index de la fonction barrière du stratum corneum. Cette méthode est surtout utilisée pour contrôler l'efficacité de formules cosmétiques qui, contenant certains types de lipides sont capables de diminuer la PIE et, en conséquence, d'empêcher la déshydratation du stratum corneum. La sonde est laissée en contact de la peau pendant 2 minutes environ de façon à atteindre une position d'équilibre. PIE = D'(dP)/(dx)(gradient de pression de vapeur) [formula] Les valeurs sont exprimées en g/m^2/heure et permettent de calculer un delta de PIE = PIE (peau traitée) - PIE (peau témoin). L'appareil utilisé est un Evaporimètre EPI de Servomed. Les mesures sont effectuées sur deux groupes de 15 volontaires sains ayant une peau sèche, avant l'application du produit (t=0) et après l'application (t=0,5 heure, 1 heure, 3 heures et 6 heures) sur la face interne des deux avant-bras. L'analogue de céramide selon l'invention ou le céramide témoin est incorporé dans une crème ayant la composition suivante (en % en poids) :
(§2) La teneur en analogue de céramide dans la crème est égale à 0,5 % (exemple 7), 1 % (exemples 4 et 8) et 5 % (exemple 6), et celle des céramides témoins (a) et (b) est égale à 0,5 %. La diminution des valeurs de PIE signifie une amélioration de la qualité de la barrière cutanée qui traduit un meilleur pouvoir retentionnel de l'eau au niveau de la couche cornée et donc une meilleure hydratation. b) hydratation cutanée L'eau peut être considérée comme un dipôle électrique capable de conduire l'électricité. Le transport d'électricité dans un champ donné est proportionnel à la quantité d'eau présente dans le stratum corneum. Plus une peau est riche en eau et plus le courant électrique passe rapidement entre 2 électrodes. Il existe donc un lien entre l'hydratation du stratum corneum et les modifications des propriétés électriques. Les mesures de capacitance, liée à la constante diélectrique de la peau, sont réalisées par le Cornéomètre Courage+Khazaka CM 200, dont la sonde présente une surface de contact avec la peau de 49 mm^2; cette sonde est appliquée avec une pression constante sur la surface cutanée à mesurer, et l'indice d'hydratation directement proportionnel au taux hydrique de surface est instantané.

[2] = test system: stratum corneum; assay: Skin barrier improvement: transepidermal (insensible) water loss (PIE), Servomed evaporimeter, cream applied to inner forearm; type: in vivo, volontaires sains ayant une peau sèche; conditions: for Perte Insensible en Eau (PIE) M±s: cream with 0,5 % (ex. 7, témoins), 1 % (ex. 4, 8), 5 % (ex. 6)
Text: as §1, §2

[3] = t=0 heure (before application, baseline)

N-stéaroyl-D,L-sphingosine [Témoin (a), reference compound]
Indice d'Hydratation (IH) M±s ([1]; t=0,5 heure after application): 67,11±7,74
Indice d'Hydratation (IH) M±s [1, 3]: 63,95±8,45
Indice d'Hydratation (IH) M±s ([1]; t=1 heure after application): 67,93±9,08
Indice d'Hydratation (IH) M±s ([1]; t=3 heures after application): 62,67±6,59
Indice d'Hydratation (IH) M±s ([1]; t=6 heures after application): 63,47±6,46
Perte Insensible en Eau (PIE) M±s ([2]; t=0,5 heure after application): 3,91±1,40 g/m^2/heure
Perte Insensible en Eau (PIE) M±s [2, 3]: 4,40±0,90 g/m^2/heure
Perte Insensible en Eau (PIE) M±s ([2]; t=1 heure after application): 3,37±1,00 g/m^2/heure
Perte Insensible en Eau (PIE) M±s ([2]; t=3 heures after application): 4,20±1,09 g/m^2/heure
Perte Insensible en Eau (PIE) M±s ([2]; t=6 heures after application): 4,11±1,41 g/m^2/heure

CCCCCCCCCCCCCCCCCC(=O)NC(CO)(CO)COC(=O)CCCCCCCCCCCCCCCCC [Exemple 8, 1-stéaroyl-2-hydroxyméthyl-2-stéaroylamino-1,3-propanediol]
Indice d'Hydratation (IH) M±s ([1]; t=0,5 heure after application): 67,16±7,98
Indice d'Hydratation (IH) M±s [1, 3]: 64,13±8,01
Indice d'Hydratation (IH) M±s ([1]; t=1 heure after application): 67,04±7,74
Indice d'Hydratation (IH) M±s ([1]; t=3 heures after application): 64,13±8,37
Indice d'Hydratation (IH) % évol. ([1]; t=3 heures versus t=0): 0%
Indice d'Hydratation (IH) M±s ([1]; t=6 heures after application): 64,87±7,83
Perte Insensible en Eau (PIE) M±s ([2]; t=0,5 heure after application): 4,28±1,38 g/m^2/heure
Perte Insensible en Eau (PIE) M±s [2, 3]: 4,52±1,02 g/m^2/heure
Perte Insensible en Eau (PIE) M±s ([2]; t=1 heure after application): 3,12±1,11 g/m^2/heure
Perte Insensible en Eau (PIE) M±s ([2]; t=3 heures after application): 4,62±1,14 g/m^2/heure
Perte Insensible en Eau (PIE) M±s ([2]; t=6 heures after application): 4,55±1,39 g/m^2/heure

CCCCCCCCCCCCCCCCCC(=O)N[C@@H](CO)[C@H](O)[C@H](O)CCCCCCCCCCCCCC [Témoin (b), N-stéaroyl phytosphingosine, reference compound]
Indice d'Hydratation (IH) M±s ([1]; t=0,5 heure after application): 67,55±7,89
Indice d'Hydratation (IH) M±s [1, 3]: 61,00±7,21
Indice d'Hydratation (IH) M±s ([1]; t=1 heure after application): 67,45±7,33
Indice d'Hydratation (IH) M±s ([1]; t=3 heures after application): 63,20±5,36
Indice d'Hydratation (IH) M±s ([1]; t=6 heures after application): 61,36±3,79
Perte Insensible en Eau (PIE) M±s ([2]; t=0,5 heure after application): 4,09±1,86 g/m^2/heure
Perte Insensible en Eau (PIE) M±s [2, 3]: 4,22±2,17 g/m^2/heure
Perte Insensible en Eau (PIE) M±s ([2]; t=1 heure after application): 3,80±1,75 g/m^2/heure
Perte Insensible en Eau (PIE) M±s ([2]; t=3 heures after application): 3,53±1,57 g/m^2/heure
Perte Insensible en Eau (PIE) M±s ([2]; t=6 heures after application): 4,36±1,82 g/m^2/heure

CCCCCCCCCCCCCCCCCC(=O)NC(C)(CO)COC(=O)CCCCCCCCCCCCCCCCC (stereo not shown) [Exemple 7, 1-stéaroyl-2-méthyl-2-stéaroylamino-1,3-propanediol]
Indice d'Hydratation (IH) M±s ([1]; t=0,5 heure after application): 66,13±5,48
Indice d'Hydratation (IH) M±s [1, 3]: 60,13±6,27
Indice d'Hydratation (IH) M±s ([1]; t=1 heure after application): 65,56±6,24
Indice d'Hydratation (IH) M±s ([1]; t=3 heures after application): 63,82±7,05
Indice d'Hydratation (IH) M±s ([1]; t=6 heures after application): 61,55±6,32
Perte Insensible en Eau (PIE) M±s ([2]; t=0,5 heure after application): 4,07±1,72 g/m^2/heure
Perte Insensible en Eau (PIE) M±s [2, 3]: 4,50±2,0 g/m^2/heure
Perte Insensible en Eau (PIE) M±s ([2]; t=1 heure after application): 3,78±1,67 g/m^2/heure
Perte Insensible en Eau (PIE) M±s ([2]; t=3 heures after application): 3,70±1,50 g/m^2/heure
Perte Insensible en Eau (PIE) M±s ([2]; t=6 heures after application): 4,46±1,64 g/m^2/heure

CCCCCCCC/C=C\CCCCCCCC(=O)NC(CC)(CO)COC(=O)CCCCCCC/C=C\CCCCCCCC (stereo not shown) [Exemple 6, 1-oléoyl-2-éthyl-2-oléoylamino-1,3-propanediol]
Indice d'Hydratation (IH) M±s ([1]; t=0,5 heure after application): 78,53±6,23
Indice d'Hydratation (IH) M±s [1, 3]: 61,91±6,90
Indice d'Hydratation (IH) M±s ([1]; t=1 heure after application): 75,29±7,78
Indice d'Hydratation (IH) M±s ([1]; t=3 heures after application): 67,05±5,61
Indice d'Hydratation (IH) M±s ([1]; t=6 heures after application): 64,56±6,14
Perte Insensible en Eau (PIE) M±s ([2]; t=0,5 heure after application): 3,67±1,34 g/m^2/heure
Perte Insensible en Eau (PIE) M±s [2, 3]: 3,96±1,60 g/m^2/heure
Perte Insensible en Eau (PIE) M±s ([2]; t=1 heure after application): 3,48±1,19 g/m^2/heure
Perte Insensible en Eau (PIE) M±s ([2]; t=3 heures after application): 3,39±1,20 g/m^2/heure
Perte Insensible en Eau (PIE) M±s ([2]; t=6 heures after application): 3,97±1,20 g/m^2/heure
Perte Insensible en Eau (PIE) % évol. ([2]; t=6 heures versus t=0): 0%
